Values of other authors in patent US4952402A, “Controlled release powder and process for its preparation” (priority 1984, dated 1990).

In the case of `Cn1c(=O)c2[nH]cnc2n(C)c1=O` [theophylline], the apparent biological half-life (in vivo) is listed as 4-9 hours and the time of peak (rapid or immediate release) is listed as 2 h.
